# System: not listed separately
# Assay: Acid dissociation constant was determined
# Format: ADME
row,pKa,Structure (SMILES)
1,8.62,CC1=NS(=O)(=O)c2cc(Cl)ccc2N1 [DIAZOXIDE]
2,9.57,O=S1(=O)NC(NC2CCC2)=Nc2ccc(F)cc21
3,7.89,O=[N+]([O-])c1ccc2c(c1)S(=O)(=O)NC(NC1CCC1)=N2
4,9.36,O=S1(=O)N=C(NC2CCC2)Nc2ccc(Cl)cc21

# Target: T1, Sulfonylurea receptor 1, Kir6.2 (Homo sapiens, UniProt Q09428+Q14654)
# Assay: Inhibition of Beta-cell KATP channel
# Format: functional
# T1 sequence (Q14654 whole entry): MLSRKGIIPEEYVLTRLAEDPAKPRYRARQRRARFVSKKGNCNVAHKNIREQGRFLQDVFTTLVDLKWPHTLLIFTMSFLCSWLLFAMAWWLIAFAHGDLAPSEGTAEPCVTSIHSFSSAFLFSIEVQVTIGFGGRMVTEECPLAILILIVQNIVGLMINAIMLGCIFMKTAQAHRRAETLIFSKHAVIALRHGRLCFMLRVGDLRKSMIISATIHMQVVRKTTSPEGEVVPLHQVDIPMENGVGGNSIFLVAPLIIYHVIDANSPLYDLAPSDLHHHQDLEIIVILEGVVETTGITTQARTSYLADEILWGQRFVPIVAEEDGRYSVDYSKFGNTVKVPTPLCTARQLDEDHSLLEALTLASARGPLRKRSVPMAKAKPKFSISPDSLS
# T1 sequence (Q09428 whole entry): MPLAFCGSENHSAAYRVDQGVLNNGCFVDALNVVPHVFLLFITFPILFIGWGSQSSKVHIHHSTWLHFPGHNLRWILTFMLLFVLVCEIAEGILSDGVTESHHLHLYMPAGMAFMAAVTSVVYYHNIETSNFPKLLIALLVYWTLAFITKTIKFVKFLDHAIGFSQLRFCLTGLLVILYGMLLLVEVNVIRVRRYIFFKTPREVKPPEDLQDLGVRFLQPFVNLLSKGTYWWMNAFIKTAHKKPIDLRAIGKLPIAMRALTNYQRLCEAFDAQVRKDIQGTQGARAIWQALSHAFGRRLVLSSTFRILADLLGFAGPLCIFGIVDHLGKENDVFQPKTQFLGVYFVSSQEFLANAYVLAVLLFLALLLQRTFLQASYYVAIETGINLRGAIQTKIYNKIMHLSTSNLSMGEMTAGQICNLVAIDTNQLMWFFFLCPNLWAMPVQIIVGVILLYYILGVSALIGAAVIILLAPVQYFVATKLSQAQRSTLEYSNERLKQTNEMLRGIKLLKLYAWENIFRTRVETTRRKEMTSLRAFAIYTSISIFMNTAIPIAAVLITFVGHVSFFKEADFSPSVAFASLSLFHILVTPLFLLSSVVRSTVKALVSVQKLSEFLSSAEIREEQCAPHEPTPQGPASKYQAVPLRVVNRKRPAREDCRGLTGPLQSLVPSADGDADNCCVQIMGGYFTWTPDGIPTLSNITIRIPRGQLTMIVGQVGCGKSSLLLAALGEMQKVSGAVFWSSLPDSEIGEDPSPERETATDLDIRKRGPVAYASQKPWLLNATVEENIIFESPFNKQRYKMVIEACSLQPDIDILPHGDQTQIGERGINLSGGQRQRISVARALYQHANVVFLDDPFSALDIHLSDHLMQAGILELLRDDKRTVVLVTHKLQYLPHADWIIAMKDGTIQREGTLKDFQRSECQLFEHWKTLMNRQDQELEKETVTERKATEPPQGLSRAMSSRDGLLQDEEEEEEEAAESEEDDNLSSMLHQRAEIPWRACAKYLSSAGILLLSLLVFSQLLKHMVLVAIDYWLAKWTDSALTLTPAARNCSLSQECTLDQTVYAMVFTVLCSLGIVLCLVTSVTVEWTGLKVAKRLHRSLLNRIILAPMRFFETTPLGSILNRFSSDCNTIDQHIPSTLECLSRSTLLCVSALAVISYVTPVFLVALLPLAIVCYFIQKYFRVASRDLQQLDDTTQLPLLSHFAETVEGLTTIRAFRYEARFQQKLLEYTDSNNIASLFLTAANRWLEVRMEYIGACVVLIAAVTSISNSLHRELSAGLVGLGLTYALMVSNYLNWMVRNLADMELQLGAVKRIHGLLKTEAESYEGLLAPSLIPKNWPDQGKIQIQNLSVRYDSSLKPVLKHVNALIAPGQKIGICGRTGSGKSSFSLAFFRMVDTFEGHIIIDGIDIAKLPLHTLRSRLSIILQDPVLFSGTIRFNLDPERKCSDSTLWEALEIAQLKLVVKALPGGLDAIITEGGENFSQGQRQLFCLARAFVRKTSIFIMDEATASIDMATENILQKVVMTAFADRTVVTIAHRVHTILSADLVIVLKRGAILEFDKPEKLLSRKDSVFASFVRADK
row,EC50,Structure (SMILES)
1,3870 nM,COc1ccc2c(c1)S(=O)(=O)NC(NC1CCC1)=N2
2,31000 nM,Nc1ccc2c(c1)S(=O)(=O)NC(NC1CCC1)=N2
3,356 nM,O=S1(=O)NC(NC2CCC2)=Nc2ccc(F)cc21
4,530 nM,O=[N+]([O-])c1ccc2c(c1)S(=O)(=O)NC(NC1CCC1)=N2
5,196 nM,O=S1(=O)N=C(NC2CCC2)Nc2ccc(Cl)cc21
6,1960 nM,O=S1(=O)N=C(NC2CCC2)Nc2ccccc21

# Target: Sulfonylurea receptor 1, Kir6.2 (Homo sapiens) (UniProt Q14654+Q09428)
# Assay: Percentage of maximal agonistic response of Beta-cell KATP channel as compared to diazoxide (50 uM)
# Format: functional
row,Max,Structure (SMILES)
1,122%,COc1ccc2c(c1)S(=O)(=O)NC(NC1CCC1)=N2
2,100%,CC1=Nc2ccc(Cl)cc2S(=O)(=O)N1
3,96.9%,Nc1ccc2c(c1)S(=O)(=O)NC(NC1CCC1)=N2
4,136%,O=S1(=O)NC(NC2CCC2)=Nc2ccc(F)cc21
5,30.9%,O=[N+]([O-])c1ccc2c(c1)S(=O)(=O)NC(NC1CCC1)=N2
6,137%,O=S1(=O)N=C(NC2CCC2)Nc2ccc(Cl)cc21
7,109%,O=S1(=O)N=C(NC2CCC2)Nc2ccccc21

# Target: T1, Sulfonylurea receptor 1, Kir6.2
# Assay: Negative log EC50 for Beta-cell KATP channel
# Format: functional
row,EC50,Structure (SMILES)
1,3980 nM,COc1ccc2c(c1)S(=O)(=O)NC(NC1CCC1)=N2
2,31600 nM,Nc1ccc2c(c1)S(=O)(=O)NC(NC1CCC1)=N2
3,398 nM,O=S1(=O)NC(NC2CCC2)=Nc2ccc(F)cc21
4,200 nM,O=S1(=O)N=C(NC2CCC2)Nc2ccc(Cl)cc21
5,2000 nM,O=S1(=O)N=C(NC2CCC2)Nc2ccccc21

# From ChEMBL document CHEMBL1134916, “Synthesis and evaluation of 7-substituted-3-cyclobutylamino-4H-1,2,4-benzothiadiazine-1,1-dioxide derivatives as K(ATP) channel agonists” (Bioorg Med Chem Lett, 2002)
